{
  "source": "patent US6432937B1",
  "about": "“Treatment for joint inflammation” (priority 1996, dated 2002)",
  "assay_type_in_all_cases": "in vivo, human",
  "key": {"ankylosing spondylitis": {"system": "ankylosing spondylitis", "assay": "Example 2: patient with ankylosing spondylitis treated with oral budesonide", "details": "person; for Outcome of previous treatment: ankylosing spondylitis for 12 years, treatment before budesonide", "experimental": "(§1) The invention is illustrated by the following examples where budesonide is administered orally using the Entocort™ preparation as described in EP-A-502092.\nThe tests were carried out in the same way as in Example 1 except that the laboratory inflammatory activity was measured using the ESR (erythrocyte sedimentation rate) whose normal value is less than 5 mm/h and the C-reactive protein plasma concentration which is usually less than 10 mg/litre."}, "[1]": {"system": "HLA-B27 associated sacroiliitis with peripheral arthropathies", "assay": "Example 5: patient with HLA-B27 associated sacroiliitis with peripheral arthropathies treated with oral budesonide", "details": "for Outcome of previous treatment: sacroiliitis with peripheral arthropathies for 8 years, treatment before budesonide", "experimental": "as §1\nA patient had suffered from a HLA-B27 associated sacroiliitis with peripheral arthropathies for 8 years. […] At admittance to the hospital they suffered from direct pains of the sacroiliac joints and inflammation of the left knee and left ankle."}, "[2]": {"system": "sacroiliitis and peripheral oligoarthritis", "assay": "Example 1: patient with sacroiliitis and peripheral oligoarthritis treated with oral budesonide", "details": "person; for Outcome of previous treatment: sacroiliitis and peripheral oligoarthritis for over 7 years, treatment before budesonide", "experimental": "as §1\nThey were initially treated with 9 mg of budesonide once a day for the first four weeks and then the dose was reduced to 6 mg per day.\nThe normal value of morning stiffness is 0 min. The joint arthritic index was measured using the Lansbury index whose normal value is 0. The spinal movement was measured using Shober's Test whose normal value is from 5 to 6 cm. The joint pain at rest and in motion was estimated using a VAS (visual analogue scale) where 0 represents no pain and 10 very severe pain."}, "rheumatoid arthritis [3]": {"system": "rheumatoid arthritis", "assay": "Example 3: patient with rheumatoid arthritis treated with oral budesonide", "details": "person, 9 mg once a day, after 4 months", "experimental": "The invention is illustrated by the following examples where budesonide is administered orally using the Entocort™ preparation as described in EP-A-502092. […] They were diagnosed as having rheumatoid arthritis. They were treated with 9 mg of budesonide once a day. The tests for the symptoms were carried out in the same way as in Examples 1 and 2."}, "[4]": {"system": "HLA-B27 associated reactive arthritis", "assay": "Example 4: patient with HLA-B27 associated reactive arthritis treated with oral budesonide", "details": "person", "experimental": "as §1\nwherein the Ritchie index is an alternative joint arthritic index."}, "rheumatoid arthritis [5]": {"system": "rheumatoid arthritis", "assay": "Example 6: patient with rheumatoid arthritis treated with oral budesonide", "details": "person, 9 mg per day, follow-up 4 weeks", "experimental": "as §1"}, "rheumatoid arthritis [6]": {"system": "rheumatoid arthritis", "assay": "Example 7: patient with rheumatoid arthritis treated with oral budesonide", "details": "person, 9 mg per day, three weeks", "experimental": "The invention is illustrated by the following examples where budesonide is administered orally using the Entocort™ preparation as described in EP-A-502092. A person had suffered from joint swelling and joint pains for about 5 months. At admittance they had symmetric swelling of finger joints, both knees and left ankle. They were on treatment with diclofenac. The rheumatoid factor test was positive and the diagnosis was rheumatoid arthritis. Diclofenac treatment was stopped and they were given 9 mg of budesonide per day."}, "rheumatoid arthritis [7]": {"system": "rheumatoid arthritis", "assay": "Example 8: patient with rheumatoid arthritis treated with oral budesonide", "details": "9 mg once a day", "experimental": "as §1\nA person had for 2 months suffered from rapidly progressive inflammations of the finger joints of both hands (metacarpophalangeal joints, proximal interphalangeal joints) and the wrists. The diagnosis was rheumatoid arthritis."}, "[8]": {"details": "9 mg once a day, oral, one month after start, before treatment 8"}, "[9]": {"details": "person, oral, second follow-up three weeks after the first, before treatment 7"}},
  "data": [
    {"molecule": "O=C(O)c1cc(/N=N/c2ccc(S(=O)(=O)Nc3ccccn3)cc2)ccc1O", "note": "[sulphasalazine]", "values": [
      {"measurement": "Outcome of previous treatment", "setting": "ankylosing spondylitis", "result": "without success"},
      {"measurement": "Outcome of previous treatment", "setting": "[1]; person", "result": "without any apparent disease-modifying effect"}
    ]},
    {"molecule": "CCCC1O[C@@H]2C[C@H]3[C@@H]4CCC5=CC(=O)C=C[C@]5(C)[C@H]4[C@@H](O)C[C@]3(C)[C@]2(C(=O)CO)O1", "note": "(stereo partly shown) [budesonide]", "values": [
      {"measurement": "Spinal movement (Shober's Test)", "setting": "[2]; 9 mg once a day four weeks then 6 mg per day, oral, after 2 months, before treatment 1, normal 5 to 6", "result": 4, "unit": "cm"},
      {"measurement": "Joint pains at rest (VAS 0-10)", "setting": "[2]; 9 mg once a day four weeks then 6 mg per day, oral, after 2 months, before treatment 5", "result": "1.5/1.5"},
      {"measurement": "Joint pains in motion (VAS 0-10)", "setting": "[2]; 9 mg once a day four weeks then 6 mg per day, oral, after 2 months, before treatment 9.5", "result": "1.5/1.5"},
      {"measurement": "Morning stiffness", "setting": "[2]; 9 mg once a day four weeks then 6 mg per day, oral, after 2 months, before treatment 120, normal 0", "result": 20, "unit": "min"},
      {"measurement": "Joint arthritic index (Lansbury index)", "setting": "[2]; 9 mg once a day four weeks then 6 mg per day, oral, after 2 months, before treatment 127, normal 0", "result": 0},
      {"measurement": "Spinal movement (Shober's Test)", "setting": "ankylosing spondylitis; 9 mg once a day, oral, one month after start, before treatment 2.5", "result": 3.5, "unit": "cm"},
      {"measurement": "Joint pains at rest (VAS 0-10)", "setting": "ankylosing spondylitis; [8]", "result": 1},
      {"measurement": "Joint pains in motion (VAS 0-10)", "setting": "ankylosing spondylitis; [8]", "result": 1.7},
      {"measurement": "ESR rate (erythrocyte sedimentation rate)", "setting": "ankylosing spondylitis; 9 mg once a day, oral, one month after start, before treatment 85, normal less than 5", "result": 30, "unit": "mm/h"},
      {"measurement": "Joint arthritic index (Lansbury index)", "setting": "ankylosing spondylitis; 9 mg once a day, oral, one month after start, before treatment 127", "result": 80},
      {"measurement": "C-reactive protein plasma concentration", "setting": "ankylosing spondylitis; 9 mg once a day, oral, one month after start, before treatment 140, usually less than 10", "result": 25, "unit": "mg/L"},
      {"measurement": "Morning stiffness", "setting": "ankylosing spondylitis; 9 mg once a day, oral, one month after start, before treatment 270", "result": 0, "unit": "min"},
      {"measurement": "C-reactive protein", "setting": "rheumatoid arthritis [3]; before treatment 41", "result": 10, "unit": "mg/L"},
      {"measurement": "ESR rate", "setting": "rheumatoid arthritis [3]; before treatment 70", "result": 16, "unit": "mm/h"},
      {"measurement": "Morning stiffness", "setting": "rheumatoid arthritis [3]; before treatment 180", "result": 0, "unit": "min"},
      {"measurement": "Joint arthritic index (Lansbury index)", "setting": "rheumatoid arthritis [3]; before treatment 205", "result": 0},
      {"measurement": "Ritchie index", "setting": "[4]; 9 mg once a day, oral, three weeks, before treatment 9", "result": 4},
      {"measurement": "Joint arthritic index", "setting": "[4]; 9 mg once a day, oral, three weeks, before treatment 112", "result": 6},
      {"measurement": "Morning stiffness", "setting": "[4]; 9 mg once a day, oral, three weeks, before treatment 120", "result": 60, "unit": "min"},
      {"measurement": "Duration of treatment until they started to improve", "setting": "[1]; 9 mg per day", "result": 2, "unit": "weeks"},
      {"measurement": "Ritchie index", "setting": "[1]; person, 9 mg per day, oral, 6 weeks after start, before treatment 3", "result": 0},
      {"measurement": "Joint pains in motion (VAS 0-10)", "setting": "[1]; person, 9 mg per day, oral, 6 weeks after start, before treatment 8", "result": "0/0"},
      {"measurement": "Joint pains at rest (VAS 0-10)", "setting": "[1]; person, 9 mg per day, oral, 6 weeks after start, before treatment 9.5", "result": "0/0"},
      {"measurement": "Joint arthritic index", "setting": "[1]; person, 9 mg per day, oral, 6 weeks after start, before treatment 127", "result": 0},
      {"measurement": "Morning stiffness", "setting": "[1]; person, 9 mg per day, oral, 6 weeks after start, before treatment 180", "result": 0, "unit": "min"},
      {"measurement": "Ritchie index", "setting": "rheumatoid arthritis [5]; before treatment 8", "result": 5},
      {"measurement": "Joint arthritic index", "setting": "rheumatoid arthritis [5]; before treatment 64", "result": 0},
      {"measurement": "Morning stiffness", "setting": "rheumatoid arthritis [5]; before treatment 120", "result": 60, "unit": "min"},
      {"measurement": "Joint pains in motion (VAS 0-10)", "setting": "rheumatoid arthritis [6]; before treatment 5", "result": "0/0"},
      {"measurement": "Joint pains at rest (VAS 0-10)", "setting": "rheumatoid arthritis [6]; before treatment 10", "result": "0/0"},
      {"measurement": "Ritchie index", "setting": "rheumatoid arthritis [6]; before treatment 19", "result": 5},
      {"measurement": "Joint arthritic index", "setting": "rheumatoid arthritis [6]; before treatment 112", "result": 15},
      {"measurement": "Morning stiffness", "setting": "rheumatoid arthritis [6]; before treatment 210", "result": 15, "unit": "min"},
      {"measurement": "Time until they started to feel better", "setting": "rheumatoid arthritis [7]", "result": 14, "unit": "days"},
      {"measurement": "Ritchie index", "setting": "rheumatoid arthritis [7]; person, oral, first follow-up three weeks after start, before treatment 16", "result": 2},
      {"measurement": "Joint arthritic index", "setting": "rheumatoid arthritis [7]; person, oral, first follow-up three weeks after start, before treatment 90", "result": 0},
      {"measurement": "Joint pains at rest (VAS 0-10)", "setting": "rheumatoid arthritis [7]; [9]", "result": "1/1"},
      {"measurement": "Joint pains in motion (VAS 0-10)", "setting": "rheumatoid arthritis [7]; [9]", "result": "1/1"}
    ]},
    {"molecule": "CN(Cc1cnc2nc(N)nc(N)c2n1)c1ccc(C(=O)N[C@@H](CCC(=O)O)C(=O)O)cc1", "note": "[methotrexate]", "values": [
      {"measurement": "Outcome of previous treatment", "setting": "[2]", "result": "without success"},
      {"measurement": "Outcome of previous treatment", "setting": "ankylosing spondylitis", "result": "without success"},
      {"measurement": "Outcome of previous treatment", "setting": "[1]; person", "result": "without any apparent disease-modifying effect"}
    ]},
    {"molecule": "C[C@]12C=CC(=O)C=C1CC[C@@H]1[C@@H]2[C@@H](O)C[C@@]2(C)[C@H]1CC[C@]2(O)C(=O)CO", "note": "[prednisolone]", "values": [
      {"measurement": "Outcome of previous treatment", "setting": "[2]", "result": "without success"},
      {"measurement": "Outcome of previous treatment", "setting": "[4]; reactive arthritis, treatment before budesonide", "result": "some relief of the joint pains"},
      {"measurement": "Outcome of previous treatment", "setting": "[1]; person", "result": "without any apparent disease-modifying effect"}
    ]}
  ]
}
